According to ChEMBL document CHEMBL4184110 (Bioorg Med Chem Lett, 2018):
Values after ≈ are worked out from the molar mass of the structure shown.

Tests used:
Vitamin D3 receptor [1] = biological target: T1, Vitamin D3 receptor (Homo sapiens, UniProt P11473); assay: Antagonist activity at CMV-fused VDR (unknown origin) expressed in HEK293T cells assessed as reduction in 24-hydroxylase promoter mediated transcriptional activity by luciferase reporter gene assay; assay type: cell-based
T1 sequence (P11473 whole entry): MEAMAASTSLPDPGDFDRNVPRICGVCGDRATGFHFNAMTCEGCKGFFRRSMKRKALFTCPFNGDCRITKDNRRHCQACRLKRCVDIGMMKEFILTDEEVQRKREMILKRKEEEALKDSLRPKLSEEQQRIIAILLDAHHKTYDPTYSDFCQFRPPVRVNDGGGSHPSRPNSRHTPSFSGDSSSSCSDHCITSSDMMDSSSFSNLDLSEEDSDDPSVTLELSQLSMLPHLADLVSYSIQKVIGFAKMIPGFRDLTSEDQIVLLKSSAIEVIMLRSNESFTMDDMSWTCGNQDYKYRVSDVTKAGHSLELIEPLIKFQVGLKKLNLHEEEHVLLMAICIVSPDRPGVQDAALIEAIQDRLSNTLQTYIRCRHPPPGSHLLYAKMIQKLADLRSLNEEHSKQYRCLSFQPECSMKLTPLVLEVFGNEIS

[2] = biological target: T2, Peroxisome proliferator-activated receptor delta (Homo sapiens, UniProt Q03181); assay: Transactivation of CMV-fused PPARdelta-LBD-GAL4-DBD (unknown origin) expressed in HEK293T cells by luciferase reporter gene assay; assay type: cell-based
T2 sequence (Q03181 whole entry): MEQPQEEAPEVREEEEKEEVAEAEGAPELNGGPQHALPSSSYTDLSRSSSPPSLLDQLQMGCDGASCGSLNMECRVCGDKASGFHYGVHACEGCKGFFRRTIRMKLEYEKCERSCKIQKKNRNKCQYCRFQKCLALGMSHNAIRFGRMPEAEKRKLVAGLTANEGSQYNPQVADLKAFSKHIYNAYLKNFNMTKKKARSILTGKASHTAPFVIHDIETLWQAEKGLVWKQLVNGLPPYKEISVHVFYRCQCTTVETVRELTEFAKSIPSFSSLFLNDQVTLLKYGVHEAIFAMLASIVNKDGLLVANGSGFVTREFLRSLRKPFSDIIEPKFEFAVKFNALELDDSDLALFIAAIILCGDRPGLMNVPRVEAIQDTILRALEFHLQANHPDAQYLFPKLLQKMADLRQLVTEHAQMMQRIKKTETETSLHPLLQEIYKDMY

Vitamin D3 receptor [3] = biological target: T1, Vitamin D3 receptor; assay: Antagonist activity at VP16-fused VDR-LBD (unknown origin) expressed in HEK293T cells assessed as inhibition of ligand-induced GAL4-fused SRC1 coactivator recruitment by two-hybrid luciferase reporter gene assay; assay type: cell-based
[4] = biological target: T3, Peroxisome proliferator-activated receptor delta (Homo sapiens) (UniProt Q03181); assay: Transactivation of CMV-fused PPARdelta-LBD-GAL4-DBD (unknown origin) expressed in HEK293T cells at 100 uM by luciferase reporter gene assay relative to GW0742; assay type: cell-based
T3 sequence (whole entry): T2 sequence (Q03181 whole entry)

Vitamin D3 receptor [5] = biological target: T1, Vitamin D3 receptor; assay: Agonist activity at VDR-LBD (unknown origin) assessed as recruitment of alexa fluor 647-labeled SRC2-3 after 30 mins by fluorescence polarization assay
Vitamin D3 receptor [6] = biological target: T1, Vitamin D3 receptor; assay: Antagonist activity at VDR-LBD (unknown origin) assessed as inhibition of LG190178-induced recruitment of alexa fluor 647-labeled SRC2-3 after 30 mins by fluorescence polarization assay
HEK-293T = assay: Cytotoxicity against HEK293T cells assessed as decrease in cell viability at 100 uM after 18 hrs by Cell Titer-Glo based luminescence assay relative to control; settings: human
[7] = Aqueous solubility of the compound in DMSO at 500 uM by filter based assay; assay type: physicochemical

Row | IC50 (Vitamin D3 receptor [1]) | EC50 ([2]; read-out: EC50) [µM] | IC50 (Vitamin D3 receptor [3]) [µM] | Activity [4] [%] | EC50 (Vitamin D3 receptor [5]) | IC50 (Vitamin D3 receptor [6]) | solubility kinetic at 500 µM [7] [µM] | IC50 (Vitamin D3 receptor [1]; read-out: IC50) [µM] | EC50 [2] | Compound | Activity (HEK-293T)
1 | Not Active | 8.7 | > 80 | 16 | Not Active | Not Active | 460 (≈ 156 µg/mL) | – | – | COc1ccccc1-c1nc(C)c(COc2ccc(C(=O)O)cc2)o1 | Non-Toxic
2 | – | – | 17.9 | – | Not Active | Not Active | 62.6 (≈ 22.1 µg/mL) | 4.85 | Not Active | COC(=O)c1ccc(OCc2oc(-c3ccccc3OC)nc2C)cc1 | 81.5%
3 | – | 4.6 | > 100 | 30 | Not Active | Not Active | 400 (≈ 147 µg/mL) | > 80 | – | COc1ccccc1-c1nc(C)c(COc2ccc(CCC(=O)O)cc2)o1 | 2.1%
4 | Not Active | 0.88 | > 100 | 22 | Not Active | Not Active | 423 (≈ 144 µg/mL) | – | – | COc1ccccc1-c1nc(C)c(COc2cccc(C(=O)O)c2)o1 | Non-Toxic
5 | Not Active | 11 | > 80 | 48 | Not Active | Not Active | 436 (≈ 154 µg/mL) | – | – | COc1ccccc1-c1nc(C)c(COc2ccc(CC(=O)O)cc2)o1 | Non-Toxic
6 | – | 1.4 | 26.7 | 13.7 | Not Active | Not Active | 234 (≈ 86.1 µg/mL) | 3.35 | – | COc1cccc(-c2nc(C)c(COc3ccc(CCC(=O)O)cc3)o2)c1 | 41.2%
7 | – | – | 13.6 | – | Not Active | Not Active | 62.6 (≈ 23.9 µg/mL) | 10.1 | Not Active | COC(=O)CCc1ccc(OCc2oc(-c3ccccc3OC)nc2C)cc1 | 79.9%

Second part, the molecule before the results:

Row | Compound | IC50 (Vitamin D3 receptor [1]) | EC50 ([2]; read-out: EC50) [µM] | IC50 (Vitamin D3 receptor [3]) [µM] | Activity [4] [%] | EC50 (Vitamin D3 receptor [5]) | IC50 (Vitamin D3 receptor [6]) | solubility kinetic at 500 µM [7] [µM] | IC50 (Vitamin D3 receptor [1]; read-out: IC50) [µM] | EC50 [2] | Activity (HEK-293T)
8 | COC(=O)c1ccccc1OCc1oc(-c2cccc(OC)c2)nc1C | – | – | 15.4 | – | Not Active | Not Active | 52.8 (≈ 18.7 µg/mL) | 6.75 | Not Active | 94.6%
9 | COC(=O)CCc1ccc(OCc2oc(-c3cccc(OC)c3)nc2C)cc1 | – | 1.09 | 6.7 | 7.7 | Not Active | Not Active | 38.2 (≈ 14.6 µg/mL) | 2.88 | – | 67.6%
10 | COC(=O)c1cccc(OCc2oc(-c3cccc(OC)c3)nc2C)c1 | – | – | 17.1 | – | Not Active | Not Active | 24.1 (≈ 8.52 µg/mL) | 5.56 | Not Active | 59.3%
11 | COc1cccc(-c2nc(C)c(COc3ccc(C(=O)O)cc3)o2)c1 | – | 2.6 | > 80 | 2.1 | Not Active | Not Active | 457 (≈ 155 µg/mL) | > 100 | – | 27.2%
12 | COc1cccc(-c2nc(C)c(COc3ccccc3C(=O)O)o2)c1 | – | – | > 33 | – | Not Active | Not Active | 264 (≈ 89.6 µg/mL) | 40.4 | Not Active | 37.3%
13 | COc1cccc(-c2nc(C)c(COc3ccc(CC(=O)O)cc3)o2)c1 | – | 1.8 | 27.7 | 8.5 | Not Active | Not Active | 410 (≈ 145 µg/mL) | 3.6 | – | 34.5%
14 | COC(=O)c1ccccc1OCc1oc(-c2ccccc2OC)nc1C | – | – | 20.2 | – | Not Active | Not Active | 185 (≈ 65.5 µg/mL) | 3.25 | Not Active | 54.1%
15 | COc1ccccc1-c1nc(C)c(COc2ccccc2C(=O)O)o1 | Not Active | – | > 80 | – | Not Active | Not Active | 402 (≈ 136 µg/mL) | – | Not Active | 4.1%
16 | COc1cccc(-c2nc(C)c(COc3cccc(C(=O)O)c3)o2)c1 | – | – | 33.1 | – | Not Active | Not Active | 498 (≈ 169 µg/mL) | 33.2 | Not Active | 23.9%
